According to article PMC11876601 (Molecular Systems Biology, 2025):
pEC50: −log10 of the molar value. Where two headings read alike, the source gives them in different places.

Tests used:
[1] = test system: 13 PDAC cell lines; assay: Phenotypic drug combination viability screen (ATPlite, 72 h), cell line panel; type: cell-based, human; conditions: for pEC50: Homo sapiens
[2] = test system: p-sites in DNA-damaged AsPC-1 cells; assay: decryptM dose-resolved phosphoproteomics of ATRi in GEM-pre-treated cells; type: cell-based, human; conditions: for pEC50 / EC50: Homo sapiens, ASPC1
Protocol: Cell culture medium was replaced 24 h after seeding. […] For time point 0, AsPC-1 cells were treated with a vehicle and lysed immediately. The final DMSO concentration in all experiments was 0.2%.
Briefly, cells were washed twice with PBS and lysed in SDS lysis buffer (2% SDS in 40 mM Tris-HCl, pH 7.6), followed by sonication for 10 min (30 s on/30 s off) using a Bioruptor (Diagenode). For DNA hydrolysis, samples were boiled at 95 °C for 10 min and incubated with 2% trifluoroacetic acid (TFA) for 1 min, before the reaction was quenched using 4% N-methylmorpholine. Lysate was cleared by centrifugation at 11,000 × g for 5 min and protein concentration was determined using the Pierce BCA Protein Assay Kit (Thermo Scientific).
Using 70% ethanol, samples were then precipitated on beads, followed by washing thrice with 80% ethanol and once with 100% acetonitrile. Subsequently, proteins were reduced and alkylated using 10 mM TCEP, 50 mM chloroacetamide, and 2 mM CaCl2 in 100 mM EPPS/NaOH, pH 8.5 for 1 h at 37 °C, followed by tryptic digestion at 37 °C for 16 h. Peptides were acidified with 1% TFA and desalted on Chromabond HLB plates (30 µm particle size, 10 mg capacity, Machery-Nagel), using 0.1% TFA for equilibration and sample loading, and 0.1% TFA in 70% acetonitrile for peptide elution. Recovered peptides were freeze-dried by vacuum-centrifugation and stored at −20 °C.
Depending on the experiment, samples were either labeled with TMT-11plex (decryptM), TMT-10plex (non-decryptM, quadruplicates), or TMTpro reagent (time-series; all Thermo Scientific). Therefore, dried peptides were reconstituted in 15 µl 100 mM EPPS, pH 8.5 and each treatment condition was labeled with one channel of the respective TMT reagent (5 µl of 25 µg/µl reagent, Appendix Tables S4–S6). The reaction was incubated for 1 h at 23 °C and subsequently quenched with 0.4% hydroxylamine. Then, samples were pooled, acidified with 1% formic acid, and freeze-dried by vacuum-centrifugation. Labeled peptide pools were desalted on C18 Sep-Pak cartridges (37–55 µm particle size, 50 mg capacity, Waters), using 0.1% formic acid as equilibration solvent, and 0.1% formic acid in 60% acetonitrile was used as elution solvent. Eluted peptides were freeze-dried and stored at −20 °C until further use.
Basic reversed-phase (bRP) fractionation of peptides was performed on a Vanquish HPLC (Thermo Scientific). In short, dried peptides were reconstituted in 200 µl 25 mM ammonium bicarbonate, pH 8.0 and directly injected onto a Waters BEH130 XBridge C18 column (3.5 µm, 4.6 × 250 mm). […] Using an automated fraction collector, 96 fractions were collected between min 7 and 55 after injection. Fractions were acidified with 1% formic acid and pooled to 48 fractions, before they were freeze-dried and stored at −20 °C.
Immobilized metal ion affinity chromatography (IMAC) enrichment of phosphorylated peptides was performed on the Bravo automated liquid handling platform using AssayMAP Fe(III)-NTA cartridges (Agilent). In brief, the 48 dried peptide fractions were reconstituted in 0.1% TFA in 80% acetonitrile and further pooled to 12 fractions (200 µl final volume per well). The phosphopeptide enrichment protocol embedded in the Agilent AssayMAP Bravo Protein Sample Prep Workbench v2.0 software was run. Thereby, the cartridges were first primed with 150 μl 0.1% TFA in acetonitrile at 300 μl/min, and equilibrated with 150 μl 0.1% TFA in 80% acetonitrile at 10 μl/min. Then, pooled fractions were loaded at 5 µl/min and further washed three times with 150 μl 0.1% TFA in 80% acetonitrile at 50 μl/min. Enriched peptides were eluted with 60 μl 1% ammonium hydroxide at 5 μl/min.

In the case of `COc1cc(N2CCC(N3CCN(C)CC3)CC2)ccc1Nc1ncc(Cl)c(Nc2ccccc2P(C)(C)=O)n1` [Brigatinib], the “number of cell lines with synergy with GEM” value ([1]; of 13 cell lines, Bliss model) was 5 cell lines.

For `C[C@@H]1COCCN1c1cc(C2([S@](C)(=N)=O)CC2)nc(-c2cc[nH]c3nccc2-3)n1` [Ceralasertib], the “Log2 PTM response (GEM+ATRi vs. GEM)” value ([2]; AASDHPPT-pS258) was -0.9, the “Log2 PTM response (GEM+ATRi vs. GEM)” value ([2]; BRCA1-pS1239) was -1.1 and the “Log2 PTM response (GEM+ATRi vs. GEM)” value ([2]; BRD8-pS621) was -1.7. For the same molecule, the “Log2 PTM response (GEM+ATRi vs. GEM)” value ([2]; CDKN2AIP-pS198) was -1.6, the “Log2 PTM response (GEM+ATRi vs. GEM)” value ([2]; CHEK1-pS317) was -2 and the “Log2 PTM response (GEM+ATRi vs. GEM)” value ([2]; CHEK1-pS468) was -3.8. For the same molecule, the “Log2 PTM response (GEM+ATRi vs. GEM)” value ([2]; DHX9-pS321) was -1.6, the “Log2 PTM response (GEM+ATRi vs. GEM)” value ([2]; EXO1-pS714) was -0.7 and the “Log2 PTM response (GEM+ATRi vs. GEM)” value ([2]; FANCD2-pS319) was -1.3. The “Log2 PTM response (GEM+ATRi vs. GEM)” value ([2]; HDGF-pS103) was -1.4, the “Log2 PTM response (GEM+ATRi vs. GEM)” value ([2]; HMGA1-pS9) was -2 and the “Log2 PTM response (GEM+ATRi vs. GEM)” value ([2]; HMGA1-pS36;S44) was -1.5. The “Log2 PTM response (GEM+ATRi vs. GEM)” value ([2]; HMGA1-pS44) was -1.7, the “Log2 PTM response (GEM+ATRi vs. GEM)” value ([2]; HSPA4-pS552) was -1.1 and the “Log2 PTM response (GEM+ATRi vs. GEM)” value ([2]; HTATSF1-pS481) was -0.6. For the same molecule, the pEC50 ([2]; approximate, from density plot Fig. 4C (peer review file), read-out: EC50 of the majority of pSQ/pTQ sites) was roughly 7.00, the EC50 ([2]; approximate, from density plot Fig. 4C (peer review file), read-out: pEC50 of the majority of pSQ/pTQ sites (converted)) was roughly 100 nM and the pEC50 ([2]; p-site dose-response in GEM-pre-treated cells, read-out: EC50, RALY S176) was 6.82. For the same molecule, the EC50 ([2]; p-site dose-response in GEM-pre-treated cells, read-out: pEC50, RALY S176 (converted)) was 151 nM, the pEC50 ([2]; read-out: median EC50 across all drug-regulated pSQ/pTQ-sites) was 6.81 and the “Log2 PTM response (GEM+ATRi vs. GEM)” value ([2]; LRRC42-pS385) was -2.5. For the same molecule, the “Log2 PTM response (GEM+ATRi vs. GEM)” value ([2]; NBN-pS397) was -1.2, the “Log2 PTM response (GEM+ATRi vs. GEM)” value ([2]; NBN-pS615) was -0.5 and the “Log2 PTM response (GEM+ATRi vs. GEM)” value ([2]; NSUN5-pS432) was -3. For the same molecule, the “Log2 PTM response (GEM+ATRi vs. GEM)” value ([2]; PELP1-pS1033) was -1.3, the “Log2 PTM response (GEM+ATRi vs. GEM)” value ([2]; PHF14-pS294) was -1.2 and the “Log2 PTM response (GEM+ATRi vs. GEM)” value ([2]; PPM1G-pS201) was -1.9. The “Log2 PTM response (GEM+ATRi vs. GEM)” value ([2]; PPP6R3-pS825) was -1.6, the “Log2 PTM response (GEM+ATRi vs. GEM)” value ([2]; PSMD4-pS266) was -1.3 and the “Log2 PTM response (GEM+ATRi vs. GEM)” value ([2]; RAD18-pS368) was -1.2. The “Log2 PTM response (GEM+ATRi vs. GEM)” value ([2]; RIF1-pS1873) was -0.6, the “Log2 PTM response (GEM+ATRi vs. GEM)” value ([2]; SNRPA-pS115) was -1.4 and the “Log2 PTM response (GEM+ATRi vs. GEM)” value ([2]; TCEA1-pS100;S97) was -2.1. The “Log2 PTM response (GEM+ATRi vs. GEM)” value ([2]; TCEB3-pS251) was -1.6, the “Log2 PTM response (GEM+ATRi vs. GEM)” value ([2]; THAP4-pS186) was -1.4 and the “Log2 PTM response (GEM+ATRi vs. GEM)” value ([2]; TOPBP1-pS1504) was -1.5. The “Log2 PTM response (GEM+ATRi vs. GEM)” value ([2]; TSEN34-pS136) was -1.1, the “Log2 PTM response (GEM+ATRi vs. GEM)” value ([2]; UHRF1-pS393) was -1.4 and the “Log2 PTM response (GEM+ATRi vs. GEM)” value ([2]; UIMC1-pS171) was -2.1. For the same molecule, the “Log2 PTM response (GEM+ATRi vs. GEM)” value ([2]; ZC3H14-pS135) was -1.3, the “ATRi Regulation (Curve), RALY S176” value ([2]; classified by CurveCurator) was “down” and the “PTM response (norm. to 1 µM GEM)” value ([2]; source data 4B (p-site not named), 1 µM GEM + ATRi 1 nM) was 1.20. For the same molecule, the “PTM response (norm. to 1 µM GEM)” value ([2]; source data 4B (p-site not named), 1 µM GEM + ATRi 3 nM) was 0.93, the “PTM response (norm. to 1 µM GEM)” value ([2]; source data 4B (p-site not named), 1 µM GEM + ATRi 30 nM) was 0.96 and the “PTM response (norm. to 1 µM GEM)” value ([2]; source data 4B (p-site not named), 1 µM GEM + ATRi 100 nM) was 0.97. For the same molecule, the “PTM response (norm. to 1 µM GEM)” value ([2]; source data 4B (p-site not named), 1 µM GEM + ATRi 300 nM) was 0.85, the “PTM response (norm. to 1 µM GEM)” value ([2]; source data 4B (p-site not named), 1 µM GEM + ATRi 1000 nM) was 0.52 and the “PTM response (norm. to 1 µM GEM)” value ([2]; source data 4B (p-site not named), 1 µM GEM + ATRi 3000 nM) was 0.35. For the same molecule, the “PTM response (norm. to 1 µM GEM)” value ([2]; source data 4B (p-site not named), 1 µM GEM + ATRi 10000 nM) was 0.27, the “PTM response (norm. to 1 µM GEM)” value ([2]; source data 5B (p-site not named), 1 µM GEM + ATRi 3 nM) was 0.78 and the “PTM response (norm. to 1 µM GEM)” value ([2]; source data 5B (p-site not named), 1 µM GEM + ATRi 10 nM) was 0.81. The “PTM response (norm. to 1 µM GEM)” value ([2]; source data 5B (p-site not named), 1 µM GEM + ATRi 30 nM) was 0.67, the “PTM response (norm. to 1 µM GEM)” value ([2]; source data 5B (p-site not named), 1 µM GEM + ATRi 100 nM) was 0.51 and the “PTM response (norm. to 1 µM GEM)” value ([2]; source data 5B (p-site not named), 1 µM GEM + ATRi 300 nM) was 0.34. The “PTM response (norm. to 1 µM GEM)” value ([2]; source data 5B (p-site not named), 1 µM GEM + ATRi 1000 nM) was 0.16, the “PTM response (norm. to 1 µM GEM)” value ([2]; source data 5B (p-site not named), 1 µM GEM + ATRi 3000 nM) was 0.11 and the “PTM response (norm. to 1 µM GEM)” value ([2]; source data 5B (p-site not named), 1 µM GEM + ATRi 10000 nM) was 0.09.

Work on `Nc1ccn([C@@H]2O[C@H](CO)[C@@H](O)C2(F)F)c(=O)n1` [GEM, Gemcitabine] yielded a pEC50 ([1]; read-out: EC50,GEM) greater than 8.00 and a pEC50 ([1]; read-out: EC50) of no more than 9.00.
